Publication PMC5218480 (PLoS ONE, 2017)

System: MV-4-11 cells
Assay: Gene expression microarray analysis (Affymetrix PrimeView) and GSEA
Format: cell-based, human
Set-up: RFU PODN (11730768_x_at) / Fold change /veh PODN (11730768_x_at) / RFU LINC00158 (11744669_a_at) / Fold change /veh LINC00158 (11744669_a_at) / RFU DUSP10 (11751237_a_at) / Fold change /veh DUSP10 (11751237_a_at) / RFU ID3 (11757404_x_at) / Fold change /veh ID3 (11757404_x_at) / RFU PLEKHG5 (11737974_s_at) / Fold change /veh PLEKHG5 (11737974_s_at) / RFU LRRC4B (11730491_at) / Fold change /veh LRRC4B (11730491_at) / RFU GIMAP4 (11747438_a_at) / Fold change /veh GIMAP4 (11747438_a_at) / RFU KRT8 (11758183_x_at) / Fold change /veh KRT8 (11758183_x_at) / RFU CNN1 (11734310_a_at) / Fold change /veh CNN1 (11734310_a_at) / RFU VPS37D (11726825_at) / Fold change /veh VPS37D (11726825_at) / RFU C10orf10 (11716522_x_at) / Fold change /veh C10orf10 (11716522_x_at) / RFU KIR2DL2 /// KIR2DL4 /// KIR2DL5A /// KIR2DL5B /// KIR2DS1 /// KIR2DS2 /// KIR2DS3 /// KIR2DS4 /// KIR3DL3 /// KIR3DL3 /// KIR3DS1 (11738374_at) / Fold change /veh KIR2DL2 /// KIR2DL4 /// KIR2DL5A /// KIR2DL5B /// KIR2DS1 /// KIR2DS2 /// KIR2DS3 /// KIR2DS4 /// KIR3DL3 /// KIR3DL3 /// KIR3DS1 (11738374_at) / RFU C1QL1 (11718748_at) / Fold change /veh C1QL1 (11718748_at) / RFU TMPRSS4 (11747572_a_at) / Fold change /veh TMPRSS4 (11747572_a_at) / RFU HAMP (11756126_x_at) / Fold change /veh HAMP (11756126_x_at) / RFU RNFT2 (11725882_a_at) / Fold change /veh RNFT2 (11725882_a_at) / RFU NR4A2 (11747474_a_at) / Fold change /veh NR4A2 (11747474_a_at) / RFU ABCC12 (11746883_a_at) / Fold change /veh ABCC12 (11746883_a_at) / RFU TMEM136 (11760407_x_at) / Fold change /veh TMEM136 (11760407_x_at) / RFU CLDN22 /// WWC2 (11732394_at) / Fold change /veh CLDN22 /// WWC2 (11732394_at) / RFU HLA-DPB1 (11760878_x_at) / Fold change /veh HLA-DPB1 (11760878_x_at) / RFU SPINT1 (11716480_a_at) / Fold change /veh SPINT1 (11716480_a_at) / RFU GAP43 (11754022_s_at) / Fold change /veh GAP43 (11754022_s_at) / RFU A4GNT (11735810_at) / Fold change /veh A4GNT (11735810_at) / RFU PRB3 (11715151_x_at) / Fold change /veh PRB3 (11715151_x_at) / RFU TUBB4B (11761932_at) / Fold change /veh TUBB4B (11761932_at) / RFU CAPN14 (11732068_a_at) / Fold change /veh CAPN14 (11732068_a_at) / RFU TMCC2 (11721928_a_at) / Fold change /veh TMCC2 (11721928_a_at) / RFU IRGQ (11745062_a_at) / Fold change /veh IRGQ (11745062_a_at) / RFU FAM174B (11720279_a_at) / Fold change /veh FAM174B (11720279_a_at) / RFU TMPRSS4 (11748680_a_at) / Fold change /veh TMPRSS4 (11748680_a_at) / RFU FAM212B (11763350_a_at) / Fold change /veh FAM212B (11763350_a_at) / RFU PLEKHG5 (11743358_a_at) / Fold change /veh PLEKHG5 (11743358_a_at) / RFU ZSCAN30 (11745921_a_at) / Fold change /veh ZSCAN30 (11745921_a_at) / RFU CMKLR1 (11741424_a_at) / Fold change /veh CMKLR1 (11741424_a_at) / RFU LOC101060620 /// MAPK8IP1 (11723275_at) / Fold change /veh LOC101060620 /// MAPK8IP1 (11723275_at) / RFU SPTSSB (11747773_x_at) / Fold change /veh SPTSSB (11747773_x_at) / RFU PRSS12 (11739890_at) / Fold change /veh PRSS12 (11739890_at) / RFU BIN1 (11741810_x_at) / Fold change /veh BIN1 (11741810_x_at) / RFU WNT11 (11732464_a_at) / Fold change /veh WNT11 (11732464_a_at) / RFU C10orf10 (11716521_a_at) / Fold change /veh C10orf10 (11716521_a_at) / RFU C5orf56 (11738089_at) / Fold change /veh C5orf56 (11738089_at) / RFU CYB561 (11721691_x_at) / Fold change /veh CYB561 (11721691_x_at) / RFU ANKRD19P (11752326_a_at) / Fold change /veh ANKRD19P (11752326_a_at) / RFU OR2T12 /// OR2T33 /// OR2T8 (11738714_s_at) / Fold change /veh OR2T12 /// OR2T33 /// OR2T8 (11738714_s_at) / RFU VCAN (11748164_a_at) / Fold change /veh VCAN (11748164_a_at) / RFU JSRP1 (11732532_at) / Fold change /veh JSRP1 (11732532_at) / RFU KRTAP10-11 (11738290_x_at) / Fold change /veh KRTAP10-11 (11738290_x_at) / RFU MYO3A (11730013_a_at) / Fold change /veh MYO3A (11730013_a_at) / RFU EBF3 (11725865_a_at) / Fold change /veh EBF3 (11725865_a_at) / RFU CAMK2N1 (11719241_x_at) / Fold change /veh CAMK2N1 (11719241_x_at) / RFU C5orf56 (11738088_a_at) / Fold change /veh C5orf56 (11738088_a_at) / RFU OLFML3 (11715873_a_at) / Fold change /veh OLFML3 (11715873_a_at) / RFU LOC100653217 /// NTM (11731650_a_at) / Fold change /veh LOC100653217 /// NTM (11731650_a_at) / RFU MAPK11 (11762145_a_at) / Fold change /veh MAPK11 (11762145_a_at) / RFU FIZ1 (11724087_x_at) / Fold change /veh FIZ1 (11724087_x_at) / RFU OASL (11726364_x_at) / Fold change /veh OASL (11726364_x_at) / RFU SOX15 (11748057_x_at) / Fold change /veh SOX15 (11748057_x_at) / RFU CD79A (11719716_a_at) / Fold change /veh CD79A (11719716_a_at) / RFU HIST1H1D (11736915_at) / Fold change /veh HIST1H1D (11736915_at) / RFU CASKIN2 (11723855_a_at) / Fold change /veh CASKIN2 (11723855_a_at) / RFU LOC730098 (11760151_x_at) / Fold change /veh LOC730098 (11760151_x_at) / RFU OR4N2 (11742367_at) / Fold change /veh OR4N2 (11742367_at) / RFU PRRT2 (11749266_a_at) / Fold change /veh PRRT2 (11749266_a_at) / RFU SNX32 (11753110_a_at) / Fold change /veh SNX32 (11753110_a_at) / RFU CDHR5 (11726645_a_at) / Fold change /veh CDHR5 (11726645_a_at) / RFU RCAN1 (11760418_a_at) / Fold change /veh RCAN1 (11760418_a_at) / RFU FAM167A (11723789_a_at) / Fold change /veh FAM167A (11723789_a_at) / RFU FAM26E (11764081_at) / Fold change /veh FAM26E (11764081_at) / RFU ISYNA1 (11749810_s_at) / Fold change /veh ISYNA1 (11749810_s_at) / RFU ACY1 (11761880_at) / Fold change /veh ACY1 (11761880_at) / RFU 11764098_at / Fold change /veh 11764098_at / RFU SAMD14 (11745864_x_at) / Fold change /veh SAMD14 (11745864_x_at) / RFU NPB (11741838_a_at) / Fold change /veh NPB (11741838_a_at) / RFU TMPRSS6 (11731388_a_at) / Fold change /veh TMPRSS6 (11731388_a_at) / RFU KRTAP10-2 (11738614_at) / Fold change /veh KRTAP10-2 (11738614_at) / RFU ARHGAP8 /// PRR5-ARHGAP8 (11727945_x_at) / Fold change /veh ARHGAP8 /// PRR5-ARHGAP8 (11727945_x_at) / RFU KRTAP5-7 /// NADSYN1 (11734609_at) / Fold change /veh KRTAP5-7 /// NADSYN1 (11734609_at) / RFU RASL12 (11751679_a_at) / Fold change /veh RASL12 (11751679_a_at) / RFU CDKN2B (11736163_a_at) / Fold change /veh CDKN2B (11736163_a_at) / RFU PRF1 (11729649_at) / Fold change /veh PRF1 (11729649_at) / RFU, ZNF638 /// ZNF638-IT1 / Fold change vs veh, ZNF638 /// ZNF638-IT1 / RFU, PANK3 / Fold change vs veh, PANK3 / RFU, SH3YL1 / Fold change vs veh, SH3YL1 / RFU, ZEB2 / Fold change vs veh, ZEB2 / RFU, NRIP1 / Fold change vs veh, NRIP1 / RFU, PTTG1IP / Fold change vs veh, PTTG1IP / RFU, CAPN2 / Fold change vs veh, CAPN2 / RFU, MED14 / Fold change vs veh, MED14 / RFU, SNORA58 / Fold change vs veh, SNORA58 / RFU, C1orf63 / Fold change vs veh, C1orf63 / RFU, LRRFIP1 / Fold change vs veh, LRRFIP1 / RFU, NDUFAF7 / Fold change vs veh, NDUFAF7 / RFU, SLC12A2 / Fold change vs veh, SLC12A2 / RFU, IBTK / Fold change vs veh, IBTK / RFU, ESF1 / Fold change vs veh, ESF1 / Fold change vs veh, TMEM50B / RFU, TAOK1 / Fold change vs veh, TAOK1 / RFU, ACBD3 / Fold change vs veh, ACBD3 / RFU, TMA16 / Fold change vs veh, TMA16 / RFU, RWDD3 / Fold change vs veh, RWDD3 / RFU, BCAT1 / Fold change vs veh, BCAT1 / RFU, EDEM3 / Fold change vs veh, EDEM3 / RFU, TMEM33 / Fold change vs veh, TMEM33 / RFU, WDR75 / Fold change vs veh, WDR75 / RFU, AHCTF1 / Fold change vs veh, AHCTF1 / RFU, TFRC / Fold change vs veh, TFRC / RFU, ZDHHC17 / Fold change vs veh, ZDHHC17 / RFU, NOM1 / Fold change vs veh, NOM1 / RFU, ARL8B / Fold change vs veh, ARL8B / RFU, ZBTB11 / Fold change vs veh, ZBTB11 / RFU, TAMM41 / Fold change vs veh, TAMM41 / RFU, KIAA1704 /// LOC100996395 / Fold change vs veh, KIAA1704 /// LOC100996395 / RFU, ING1 / Fold change vs veh, ING1 / RFU, TRMT61B / Fold change vs veh, TRMT61B / RFU, FUBP3 / Fold change vs veh, FUBP3 / RFU, TP53 / Fold change vs veh, TP53 / RFU, TNKS2 / Fold change vs veh, TNKS2 / RFU, ZFP14 / Fold change vs veh, ZFP14 / RFU, ACTR2 / Fold change vs veh, ACTR2 / RFU, PPP3R1 / Fold change vs veh, PPP3R1 / RFU, PIK3R1 / Fold change vs veh, PIK3R1 / RFU, HNRNPA1 / Fold change vs veh, HNRNPA1 / RFU, RNF170 / Fold change vs veh, RNF170 / RFU, ZNF28 / Fold change vs veh, ZNF28 / RFU, RNGTT / Fold change vs veh, RNGTT / RFU, OGT / Fold change vs veh, OGT / RFU, BRD1 / Fold change vs veh, BRD1 / RFU, MARS / Fold change vs veh, MARS / RFU, ZNF655 / Fold change vs veh, ZNF655 / RFU, FAHD1 / Fold change vs veh, FAHD1 / RFU, BDP1 / Fold change vs veh, BDP1 / RFU, LRRCC1 / Fold change vs veh, LRRCC1 / RFU, ARID1A / Fold change vs veh, ARID1A / RFU, ZNF146 / Fold change vs veh, ZNF146 / RFU, ZNF330 / Fold change vs veh, ZNF330 / RFU, GPN3 / Fold change vs veh, GPN3 / RFU, C9orf123 / Fold change vs veh, C9orf123 / RFU, N4BP2L2 / Fold change vs veh, N4BP2L2 / RFU, ARFIP1 / Fold change vs veh, ARFIP1 / RFU, FAM179B / Fold change vs veh, FAM179B / RFU, BCL10 / Fold change vs veh, BCL10 / RFU, UHRF1BP1L / Fold change vs veh, UHRF1BP1L / RFU, BET1 / Fold change vs veh, BET1 / RFU, CNOT2 / Fold change vs veh, CNOT2 / RFU, ZNF268 / Fold change vs veh, ZNF268 / Fold change vs veh, ZNF507 / RFU, DGCR2 / Fold change vs veh, DGCR2 / RFU, WDSUB1 / Fold change vs veh, WDSUB1 / Fold change vs veh, HSP90B1 /// MIR3652 / RFU, ADSS / Fold change vs veh, ADSS / RFU, GK / Fold change vs veh, GK / RFU, ZNF148 / Fold change vs veh, ZNF148 / RFU, TAF9 / Fold change vs veh, TAF9 / RFU, SLC1A5 / Fold change vs veh, SLC1A5 / RFU, SLMO2 / Fold change vs veh, SLMO2 / RFU, ABCC4 / Fold change vs veh, ABCC4 / RFU, LOC101060439 /// RAP1B / Fold change vs veh, LOC101060439 /// RAP1B / RFU, RFX7 / Fold change vs veh, RFX7 / RFU, GTPBP10 / Fold change vs veh, GTPBP10 / RFU, CNEP1R1 / Fold change vs veh, CNEP1R1 / RFU, BIVM-ERCC5 /// ERCC5 / Fold change vs veh, BIVM-ERCC5 /// ERCC5 / RFU, ILF3 / Fold change vs veh, ILF3 / RFU 11762660_at / Fold change /veh 11762660_at / RFU VCAN (11757783_s_at) / Fold change /veh VCAN (11757783_s_at) / RFU DDX43 (11728927_at) / Fold change /veh DDX43 (11728927_at) / RFU KRT8 (11758188_x_at) / Fold change /veh KRT8 (11758188_x_at) / RFU NKD1 (11759106_at) / Fold change /veh NKD1 (11759106_at) / RFU SRD5A1 (11742802_a_at) / Fold change /veh SRD5A1 (11742802_a_at) / RFU TPSAB1 /// TPSB2 (11721975_s_at) / Fold change /veh TPSAB1 /// TPSB2 (11721975_s_at) / RFU GSTM3 (11746129_a_at) / Fold change /veh GSTM3 (11746129_a_at) / RFU IL23R (11737362_x_at) / Fold change /veh IL23R (11737362_x_at) / RFU TMEM51 (11727254_a_at) / Fold change /veh TMEM51 (11727254_a_at) / RFU PIWIL2 (11732686_x_at) / Fold change /veh PIWIL2 (11732686_x_at) / RFU ORM1 (11744905_x_at) / Fold change /veh ORM1 (11744905_x_at) / RFU CCDC152 (11743942_at) / Fold change /veh CCDC152 (11743942_at) / RFU ECM1 (11717891_a_at) / Fold change /veh ECM1 (11717891_a_at) / RFU IL23R (11748794_a_at) / Fold change /veh IL23R (11748794_a_at) / RFU TNFAIP8L3 (11732012_x_at) / Fold change /veh TNFAIP8L3 (11732012_x_at) / RFU MBOAT4 (11741988_at) / Fold change /veh MBOAT4 (11741988_at) / RFU 11764193_at / Fold change /veh 11764193_at / RFU TMEM53 (11763286_at) / Fold change /veh TMEM53 (11763286_at) / RFU MAGEB2 (11727129_at) / Fold change /veh MAGEB2 (11727129_at) / RFU TMEM200A (11744735_a_at) / Fold change /veh TMEM200A (11744735_a_at) / RFU CCDC152 (11751479_a_at) / Fold change /veh CCDC152 (11751479_a_at) / RFU FAM211A (11726209_a_at) / Fold change /veh FAM211A (11726209_a_at) / RFU RGS16 (11746705_a_at) / Fold change /veh RGS16 (11746705_a_at) / RFU VCAN (11755009_s_at) / Fold change /veh VCAN (11755009_s_at) / RFU RHOB (11743442_s_at) / Fold change /veh RHOB (11743442_s_at) / RFU RGS16 (11720943_a_at) / Fold change /veh RGS16 (11720943_a_at) / RFU RGS16 (11720944_at) / Fold change /veh RGS16 (11720944_at) / RFU, VPS4B / Fold change vs veh, VPS4B / RFU, CREB1 / Fold change vs veh, CREB1 / RFU, DNAJC13 / Fold change vs veh, DNAJC13 / RFU, GNAQ / Fold change vs veh, GNAQ / RFU, CDK5R1 / Fold change vs veh, CDK5R1 / RFU, ZRANB3 / Fold change vs veh, ZRANB3 / RFU, CUL4A / Fold change vs veh, CUL4A / RFU, CCNY / Fold change vs veh, CCNY / RFU, UFL1 / Fold change vs veh, UFL1 / RFU, COG3 / Fold change vs veh, COG3 / RFU, DIAPH2 / Fold change vs veh, DIAPH2 / RFU, SKA2 / Fold change vs veh, SKA2 / RFU, AFF3 / Fold change vs veh, AFF3 / RFU, LMF1 / Fold change vs veh, LMF1 / RFU, IPO11 / Fold change vs veh, IPO11 / RFU, DFFB / Fold change vs veh, DFFB / RFU, FOXP1 / Fold change vs veh, FOXP1 / RFU, CARD8 / Fold change vs veh, CARD8 / RFU, STRN3 / Fold change vs veh, STRN3 / RFU, ADK / Fold change vs veh, ADK / RFU, RASSF2 / Fold change vs veh, RASSF2 / RFU, WIPF1 / Fold change vs veh, WIPF1 / RFU, LARP1B / Fold change vs veh, LARP1B / RFU, RASA1 / Fold change vs veh, RASA1 / RFU, RB1 / Fold change vs veh, RB1 / RFU, PPFIA1 / Fold change vs veh, PPFIA1 / RFU, MAT2A / Fold change vs veh, MAT2A / RFU, CCT5 / Fold change vs veh, CCT5 / RFU, WDR92 / Fold change vs veh, WDR92 / RFU, CUX1 / Fold change vs veh, CUX1 / RFU, TTC7A / Fold change vs veh, TTC7A / RFU, TMEM135 / Fold change vs veh, TMEM135 / RFU, DEPTOR / Fold change vs veh, DEPTOR / RFU, CPM / Fold change vs veh, CPM / RFU, DNAJB6 / Fold change vs veh, DNAJB6 / RFU, CACNA2D3 / Fold change vs veh, CACNA2D3 / RFU, DTX4 / Fold change vs veh, DTX4 / RFU, TFCP2 / Fold change vs veh, TFCP2 / RFU, GMCL1 /// GMCL1P1 / Fold change vs veh, GMCL1 /// GMCL1P1 / RFU, AEBP2 / Fold change vs veh, AEBP2 / RFU, SNHG1 /// SNORD22 /// SNORD25 /// SNORD26 /// SNORD27 /// SNORD28 /// SNORD29 /// SNORD31 / Fold change vs veh, SNHG1 /// SNORD22 /// SNORD25 /// SNORD26 /// SNORD27 /// SNORD28 /// SNORD29 /// SNORD31 / Fold change (Aza/veh), C12orf56 (ProbeSet 11735607_a_at) / Fold change (ACY-1035/veh), C12orf56 (ProbeSet 11735607_a_at) / Fold change (Aza/veh), FGFR1OP (ProbeSet 11751329_s_at) / Fold change (ACY-1035/veh), FGFR1OP (ProbeSet 11751329_s_at) / Fold change (Aza/veh), VPS36 (ProbeSet 11739960_a_at) / Fold change (ACY-1035/veh), VPS36 (ProbeSet 11739960_a_at) / RFU SYPL1 (11715823_x_at) / Fold change /veh SYPL1 (11715823_x_at) / RFU IGFBP7 (11715501_s_at) / Fold change /veh IGFBP7 (11715501_s_at) / RFU REEP3 (11722064_at) / Fold change /veh REEP3 (11722064_at) / RFU IGLL1 (11728026_x_at) / Fold change /veh IGLL1 (11728026_x_at): dose or concentration left out as unconfirmed
Conditions: ProbeSet 11741199_a_at; LIST B

**Q.** For `Nc1ccc(-c2cccs2)cc1NC(=O)c1ccc2c(c1)cc(C1CC1)n2CCN1CCOCC1` [ACY-1035], which “Fold change vs veh, LRRCC1” value is on record?
**A.** 0.84
